In patent publication US8592603B2, “Synthesis of 2-(4-aminophenyl) benzothiazole derivatives and use thereof” (Kaohsiung Medical University, priority 2011, dated 2013):

B1: catalase: an effective H2O2 scavenger (Sigma) (protein, UniProt P00432 2-527, looked up)
Catalase: ADNRDPASDQMKHWKEQRAAQKPDVLTTGGGNPVGDKLNSLTVGPRGPLLVQDVVFTDEMAHFDRERIPERVVHAKGAGAFGYFEVTHDITRYSKAKVFEHIGKRTPIAVRFSTVAGESGSADTVRDPRGFAVKFYTEDGNWDLVGNNTPIFFIRDALLFPSFIHSQKRNPQTHLKDPDMVWDFWSLRPESLHQVSFLFSDRGIPDGHRHMNGYGSHTFKLVNANGEAVYCKFHYKTDQGIKNLSVEDAARLAHEDPDYGLRDLFNAIATGNYPSWTLYIQVMTFSEAEIFPFNPFDLTKVWPHGDYPLIPVGKLVLNRNPVNYFAEVEQLAFDPSNMPPGIEPSPDKMLQGRLFAYPDTHRHRLGPNYLQIPVNCPYRARVANYQRDGPMCMMDNQGGAPNYYPNSFSAPEHQPSALEHRTHFSGDVQRFNSANDDNVTQVRTFYLKVLNEEQRKRLCENIAGHLKDAQLFIQKKAVKNFSDVHPEYGSRIQALLDKYNEEKPKNAVHTYVQHGSHLSAREKANL

Key:
[1] = test system: BCC cells; assay: Sub-G1 region analysis (PI, flow cytometry); format: cell-based, human; settings: 4 μM for 4 hours, 1 J/cm^2 UVA, 24 h after irradiation
Procedure: BCC cells were treated with compounds at 4 μM and 1 J/cm^2 UVA. Twenty-four hours after irradiation, cells were harvested by trypsinization and centrifugation. Cell pellets were resuspended in 50% cold ethanol and fixed at −20° C. After fixation, cells were washed once with cold PBS and incubated in 0.5 mL of PBS containing 100 μg/mL RNase A for 20 min at 37° C. Cells were harvested by centrifugation at 400 g for 5 min, and 250 μL of PBS containing 50 μg/mL propidium iodide (PI) was added to the pellet. Thirty minutes later, the DNA contents of 10,000 events were measured by FACSscan flow cytometer (Elite ESP, Beckman Coulter, Brea, Calif.). Histograms were analyzed using Windows Multiple Document Interface software (WinMDI). Cells with DNA content less than that in untreated cells in G0/G1 were considered apoptotic. To investigate the effects of compounds 6 on cell cycle progression of BCC cells, the DNA content of cell nuclei was measured by flow cytometric analysis. […] BCC cells were treated with 4 μM agents for 4 hours followed by 1 J/cm^2 UVA irradiation. Twenty-four hours after irradiation, the PI reagent was used. Approximately 10000 cells from each group were analyzed with the FACScan flow cytometer. The apoptotic effects in 2.2% (control), 6.5% (6a), 13.4% (6b), 29.2% (6c), 24.4% (6d), 6.5% (6e), 35.4% (6f), 13.6% (6g), 13.8% (6h), 14.8% (6i) and 6.4% (6j) of sub-G1 DNA peak were obtained (% represented the percentage of cell counts).

[2] = test system: ERK; assay: Western blot analysis of MAPK phosphorylation: ERK; format: cell-based, human; settings: BCC cells, pretreatment 30 min before 4 μM 6f-UVA; oligomycin 25 μM, ATP 1×10^−4M (FIG. 6B)
Procedure: (A) After exposure to different concentration of 6f-UVA, cell lysates were collected and immunoblotted with specific antibodies as indicated. For the internal control, the same amounts of protein extract were also probed with antibody against actin. (B) As a control, the expression level of p-ERK was determined in the presence of oligomycin (25 μM) and ATP (1×10^−4M)
Total cell extracts from cultured BCC cells were obtained by lysing the cells in ice-cold RIPA buffer (1×PBS, 1% NP-40, 0.5% sodium deoxycholate, 0.1% SDS) containing 100 μg/mL PMSF, 2 μg/mL aprotinin, 2 μg/mL leupeptin and 100 μg/mL NaF. After centrifugation at 14,000 g for 30 min, protein in the supernatants was quantified by Bradford method (Bio-Rad). Forty micrograms of protein per lane was applied in 10% SDS-poly-acrylamide gel. After electrophoresis, protein was transferred from the gel to polyvinylidene difluoride (PVDF) membrane (Millipore, Bedford, Mass.). The membranes were blocked at room temperature for 1 h in PBS+0.1% Tween 20 (PBS-T) containing 5% skim milk. After being briefly rinsed with PBS-T, the blots were probed with respective primary antibodies at room temperature for 2 h or at 4° C. overnight. Rabbit polyclonal antibodies against JNK (46 kDa), p38 (38 kDa), ERK (42, 44 kDa), and mouse monoclonal antibody against p-JNK, p-p38, p-ERK were purchased from Santa Cruz Biotechnology (Santa Cruz, Calif.). Mouse monoclonal antibody against actin was purchased from Chemicon Int. Inc. (Temecula, Calif.). For the blocking test, 25 μM oligomycin (Sigma, a mitochondria-specific F0F1 ATP synthase inhibitor) or 1×10^−4M ATP (Sigma) was added to the media 30 min before treated with 6f-UVA, respectively. The membrane was incubated with the corresponding horseradish peroxidase-labeled secondary antibody (Santa Cruz Biotechnology) at room temperature for 1 h. […] The relative amounts of specific proteins were quantified by densitometry scanning of X-ray films and analyzed by Eagle Eye Image System (Stratagene, La Jolla, Calif.)

[3] = test system: BCC cells; assay: Determination of intracellular ROS level (DCFH-DA); format: cell-based, human; settings: BCC cells treated with 4 μM 6f-UVA, catalase 800 U/mL pretreatment
Procedure: (A) 6f-UVA induced ROS generation in BCC cells. Histogram of fluorescence vs cell count in BCC cells with various concentrations of 6f-UVA and stained with DCFH-DA. As a control, ROS was measured in the presence of catalase, a H2O2 scavenger. (B) The ΔΨmt of BCC cells after exposure to 6f-UVA. Cells were treated with 0, 2, and 4 μM Formula 6f for 4 h followed by 1 J/cm2 UVA irradiation, then stained with DiOC6 and analyzed immediately by flow cytometry as described under Materials and Methods. The number in M1 indicates the percentage of cells with reduced ΔΨmt. Approximately 10000 cells from each group were analyzed by flow cytometry. (C) Relative ATP levels were calculated as the percentage of the 0 μM level. Similar results were obtained in three independent experiments. *p<0.05, ** p<0.01 as compared with the control.
To evaluate intracellular reactive oxygen species (ROS) levels, 2′,7′-dichlorofluorescein diacetate (DCFH-DA, Molecular Probes) fluorescent dye was used to clarify this issue. The nonpolar DCFH-DA is converted to the polar derivative DCFH by esterases when it is taken up by the cell. DCFH is nonfluorescent but is rapidly oxidized to the highly fluorescent DCF by intracellular H2O2 or nitric oxide. […] The fluorescence of the samples was measured with a flow cytometer. The 2′,7′-dichlorofluorescein (DCF) data were recorded using FL-1 photomultiplier.

| Molecule | sub-G1 DNA peak (apoptotic effects, percentage of cell counts) [1] | melting point | ERK activation after pretreatment [2] | effect of catalase on increased ROS production [3] |
| --- | --- | --- | --- | --- |
| Cc1cc(-c2nc3ccc(C(F)(F)F)cc3s2)ccc1N [Formula 6j, 2-(4-Amino-3-methylphenyl)-6-trifluoromethylbenzothiazole] | 6.4% | 152 to 154 °C | – | – |
| Cc1ccc2nc(-c3ccc(N)cc3)sc2c1 [Formula 6b, 2-(4-Aminophenyl)-6-methylbenzothiazole] | 13.4% | – | – | – |
| Nc1ncnc2c1ncn2[C@@H]1O[C@H](COP(=O)(O)OP(=O)(O)OP(=O)(O)O)[C@@H](O)[C@H]1O [ATP] | – | – | not ATP increased the ERK activation | – |
| COc1ccc2nc(-c3ccc(N)c(C)c3)sc2c1 [Formula 6i, 2-(4-Amino-3-methylphenyl)-6-methoxybenzothiazole] | 14.8% | 151 to 153 °C | – | – |
| CCc1ccc2nc(-c3ccc(N)cc3)sc2c1 [Formula 6c, 2-(4-Aminophenyl)-6-ethylbenzothiazole] | 29.2% | 154 to 156 °C | – | – |
| COc1cccc2nc(-c3ccc(N)cc3)sc12 [Formula 6d, 2-(4-Aminophenyl)-7-methoxybenzothiazole] | 24.4% | 142 to 144 °C | – | – |
| Cc1cc(-c2nc3ccccc3s2)ccc1N [Formula 6g, 2-(4-Amino-3-methylphenyl)benzothiazole] | 13.6% | – | – | – |
| Nc1ccc(-c2nc3ccccc3s2)cc1 [Formula 6a, 2-(4-Aminophenyl)benzothiazole] | 6.5% | – | – | – |
| CCc1ccc2nc(-c3ccc(N)c(C)c3)sc2c1 [Formula 6h, 2-(4-Amino-3-methylphenyl)-6-ethylbenzothiazole] | 13.8% | 171 to 173 °C | – | – |
| COc1ccc2nc(-c3ccc(N)cc3)sc2c1 [Formula 6e, 2-(4-Aminophenyl)-6-methoxybenzothiazole] | 6.5% | – | – | – |
| CC[C@H]1/C=C/C=C/C[C@@H](C)[C@H](O)[C@@](C)(O)C(=O)[C@@H](C)[C@H](O)[C@@H](C)C(=O)[C@@H](C)[C@H](O)[C@@H](C)/C=C/C(=O)O[C@@H]2[C@H](C)[C@H](CC1)O[C@]1(CC[C@H](C)[C@H](C[C@@H](C)O)O1)[C@H]2C [oligomycin] | – | – | increased the ERK activation | – |
| B1 | – | – | – | significantly abrogated |
